Test results published in publication PMC10208956, “Microbial peptides activate tumour-infiltrating lymphocytes in glioblastoma” (Nature, 2023).

Key:
Assay type in all cases: cell-based, human
[1] = tested on: bulk TILs (patient 1635WI); assay: Cytokine and chemokine secretion of bulk TILs stimulated with IPdBPs; set-up: key to CD40 Ligand / Flt-3 Ligand / GM-CSF / Granzyme B / IFN-α / IFN-γ / IL-1rα / IL-1α / IL-1β / IL-2 / IL-3 / IL-4 / IL-5 / IL-6 / IL-7 / IL-10 / IL-12p70 / IL-13 / IL-15 / IL-17A / IL-33 / TNF-α / RANTES: pg/mL, negative-control amount subtracted; CXCL2/GROβ / CXCL10/IP-10 / CCL2/MCP-1 / CCL3/MIP-1α / CCL4/MIP-1β: unit not given beside the values; details: secretion by bulk TILs after peptide stimulation; sheet 1e
Description: Fig. 1 Elution of HLA class II-presented bacterial peptides from 19 glioblastomas and the stimulatory effect of IPdBPs on bulk TILs. a, Schematic of the immunopeptidome analyses of glioblastoma tissue, from which eluted peptides were annotated using the UniProt bacteria database (1). TILs or peripheral memory T cells were stimulated with IPdBPs (2 and 3). LC–MS, liquid chromatography–mass spectrometry; PBMC, peripheral blood mononuclear cell. The images in panel a were created using BioRender (https://biorender.com). b, Number of unique IPdBPs in patients with glioblastoma (n = 19) (data from patient 1635WI contains both primary and recurrent tumours together), with 344 unique IPdBPs identified (left). These peptides originated from 255 and 199 unique proteins and bacteria, respectively (3 technical replicates). […] As a control, peptidome data were also annotated using human protein database to identify eluted self-peptides. As shown, most of HLA class II-bound peptides are self-(human) peptides. IPdBPs of primary (bottom left, n = 18) and recurrent (bottom right, n = 23) tumours were separately annotated to their source bacteria at the phylum level. d, Bulk TILs (patient 1635WI) were stimulated with IPdBPs (See Supplementary Table 8), each in five replicate wells, and proliferation was measured after 5 days via ^3H-thymidine incorporation. […] The data are expressed as the mean value of all wells ± s.e.m. SIN3A* peptide was used as a positive control as TILs recognize this tumour antigen. T cells with APCs without any stimuli were used as a negative control. e, Heatmap of cytokine and chemokine secretion of TILs stimulated with three IPdBPs, which weakly stimulated proliferation. The secretion of each cytokine and chemokine was calculated by subtracting the corresponding cytokine and chemokine amount (pg ml^−1) of the negative control. TILs with APCs without any stimuli were used as a negative control. Also see Extended Data Fig. 1. Source data
Supernatants from each experiment were harvested a day before adding thymidine and frozen at −20 °C. Cytokines were measured using ELISA for human IFNγ ELISA MAX (BioLegend), human GM-CSF DuoSet ELISA (R&D Systems) and bead-based assays. A Synergy H1 hybrid multi-mode reader (Agilent) was used to measure the absorbance. The LEGENDplex Multi-analyte Flow Assay kit (BioLegend) is a 13-plex human TH cytokine panel, which includes IFNγ, TNF, IL-2, IL-4, IL-5, IL-6, IL-9, IL-10, IL-13, IL-17A, IL-17F, IL-21 and IL-22. […] LSR Fortessa Flow Cytometer (BD Biosciences) was used to measure cytokines, and data were analysed using FlowJo (Tree Star). The Human XL Cytokine Luminex Performance Assay Fixed Panel (R&D Systems) contains 45 analytes covering a broad range of various chemokines and cytokines.

[2] = tested on: bacteria/microbiota-reactive CFSEdim CD4+ TILs; assay: Proliferation of expanded CFSEdim CD4+ TILs that responded to the bacteria/microbiota peptide pool; details: 5 days; 4 replicate wells; Fig. 4d
TCC75 = assay: Cytokine/chemokine secretion of TCC75; set-up: IL-1α / IL-1β / IL-2 / IL-3 / IL-4 / IL-5 / IL-6 / IL-7 / IL-10 / IL-13 / IL-15 / IL-17A / IL-33 / TNF-α: unit not given here; details: TCC75, sheet e

Ac-QPVEFNHAIHYVN-NH2 [SIN3A*] was tested, and the CCL2/MCP-1 [1] was 2816.44, the CCL3/MIP-1α [1] was 29.38 and the CCL4/MIP-1β [1] was 288.41. It also gave a CCL11/Eotaxin [1] of 0, a CCL19/MIP-3β [1] of 3.84 and a CCL20/MIP-3α [1] of 5.69. For the same substance, the “CD40 Ligand” value [1] was 1225.7, the CXCL1/GROα [1] was 401.05 and the CXCL2/GROβ [1] was 208.21. The CXCL8/IL-8 [1] was 3621.56, the CXCL10/IP-10 [1] was 192.55 and the “Flt-3 Ligand” value [1] was 87.97. For the same substance, the GM-CSF [1] was 322.89, the “Granzyme B” value [1] was 136.59 and the IFN-α [1] was 1.52. For the same substance, the IFN-γ [1] was 41.34, the IL-1rα [1] was 1593.54 and the IL-1α [1] was 6.01. The IL-1β [1] was 5.99, the IL-2 [1] was 5.92 and the IL-3 [1] was 55.24. For the same substance, the IL-4 [1] was 3.08, the IL-5 [1] was 16.46 and the IL-6 [1] was 23.1. The IL-7 [1] was 0.95, the IL-10 [1] was 62.69 and the IL-12p70 [1] was 0. For the same substance, the IL-13 [1] was 67.23, the IL-15 [1] was 2.11 and the IL-17A [1] was 2.07. For the same substance, the IL-17E/IL-25 [1] was 0, the IL-33 [1] was 6.61 and the RANTES [1] was 135. For the same substance, the TNF-α [1] was 366.07, the “recognition by CD4+ TILs pre-stimulated with the bacteria/microbiota peptide pool, by proliferation and/or GM-CSF secretion (in words)” value [2] was “recognized” and the CCL2/MCP-1 (TCC75) was 15.01. It also gave a CCL3/MIP-1α (TCC75) of 1946.52, a CCL4/MIP-1β (TCC75) of 6778.88 and a CCL11/Eotaxin (TCC75) of 4.69. The CCL19/MIP-3β (TCC75) was 3.33, the CCL20/MIP-3α (TCC75) was 6.39 and the “CD40 Ligand” value (TCC75) was 608.52. For the same substance, the CXCL1/GROα (TCC75) was 9.62, the CXCL2/GROβ (TCC75) was 35.12 and the CXCL8/IL-8 (TCC75) was 0. The CXCL10/IP-10 (TCC75) was 40.51, the “Flt-3 Ligand” value (TCC75) was 43.9 and the Fractalkine (TCC75) was 194.12. For the same substance, the GM-CSF (TCC75) was 3130.41, the “Granzyme B” value (TCC75) was 1085.42 and the IFN-α (TCC75) was 4.79. The IFN-γ (TCC75) was 479.21, the IL-1rα (TCC75) was 0 and the IL-1α (TCC75) was 6.12. For the same substance, the IL-1β (TCC75) was 7.45, the IL-2 (TCC75) was 555.39 and the IL-3 (TCC75) was 138.37. It also gave an IL-4 (TCC75) of 73.09, an IL-5 (TCC75) of 13.91 and an IL-6 (TCC75) of 139.59. It also gave an IL-7 (TCC75) of 1.11, an IL-10 (TCC75) of 887.25 and an IL-12p70 (TCC75) of 22.92. For the same substance, the IL-13 (TCC75) was 233.15, the IL-15 (TCC75) was 1.05 and the IL-17A (TCC75) was 0.99. For the same substance, the IL-17E/IL-25 (TCC75) was 3.22, the IL-33 (TCC75) was 3.72 and the RANTES (TCC75) was 1598.25. It also gave a TNF-α (TCC75) of 5169.38.
